ChEMBL document CHEMBL1128915, “2-cyanopyrrolidides as potent, stable inhibitors of dipeptidyl peptidase IV” (Bioorg Med Chem Lett, 1996)
pKi: −log10 of the molar value.

System: not listed separately
Experiment: Half-life in aqueous solution(pH 7.4).
Format: ADME

Structure (SMILES)	half-life [h]
O=C([C@@H]1CCCN1)N1CCC[C@H]1B(O)O	1.5
N#C[C@@H]1CCCN1C(=O)[C@@H](N)CCCCN	24
CC(C)(C)[C@H](N)C(=O)N1CCC[C@H]1C#N	> 48
C[C@H](N)C(=O)N1CCC[C@H]1B(O)O	0.5
N#C[C@@H]1CCCN1C(=O)[C@@H]1CCCN1	7.5
CC[C@H](C)[C@H](N)C(=O)N1CCC[C@H]1C#N	48
N#C[C@@H]1CCCN1C(=O)[C@@H](N)C1CCCCC1	> 48

Target: Dipeptidyl peptidase 4 (Homo sapiens, UniProt P27487)
Experiment: In vitro test for inhibitory activity against human dipeptidyl peptidase IV.

Chain of Dipeptidyl peptidase 4 (P27487 whole entry): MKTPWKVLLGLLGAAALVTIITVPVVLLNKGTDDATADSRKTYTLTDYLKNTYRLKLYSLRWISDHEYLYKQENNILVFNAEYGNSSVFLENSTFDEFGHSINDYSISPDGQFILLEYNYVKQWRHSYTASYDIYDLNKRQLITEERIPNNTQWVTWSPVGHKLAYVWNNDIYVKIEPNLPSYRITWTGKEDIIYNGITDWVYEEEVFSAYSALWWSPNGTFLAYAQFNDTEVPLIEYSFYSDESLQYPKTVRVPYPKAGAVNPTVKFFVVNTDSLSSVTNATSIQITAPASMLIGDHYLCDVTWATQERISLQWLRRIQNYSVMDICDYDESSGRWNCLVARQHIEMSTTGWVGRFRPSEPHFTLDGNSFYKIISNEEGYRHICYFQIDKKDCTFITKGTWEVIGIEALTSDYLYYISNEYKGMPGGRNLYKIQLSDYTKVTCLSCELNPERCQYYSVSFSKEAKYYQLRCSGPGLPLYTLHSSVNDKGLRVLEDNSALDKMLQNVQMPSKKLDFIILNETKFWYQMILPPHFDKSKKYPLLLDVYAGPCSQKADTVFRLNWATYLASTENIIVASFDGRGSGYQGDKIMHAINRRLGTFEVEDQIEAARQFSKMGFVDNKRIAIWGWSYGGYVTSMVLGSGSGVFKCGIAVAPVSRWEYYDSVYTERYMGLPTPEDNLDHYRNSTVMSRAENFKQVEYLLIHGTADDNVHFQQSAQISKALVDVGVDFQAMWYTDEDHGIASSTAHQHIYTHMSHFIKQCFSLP

Structure (SMILES)	pKi
O=C([C@@H]1CCCN1)N1CCC[C@H]1B(O)O	8.52
O=C([C@H](CO)NCc1ccccc1)N1CCCC1	5.22
C[C@@H](O)[C@H](N)C(=O)N1CCCC1	5.31
N[C@@H](CCC(=O)OCc1ccccc1)C(=O)N1CCCC1	5.57
N[C@@H](CCC(=O)O)C(=O)N1CCCC1	5.70
N#C[C@@H]1CCCN1C(=O)[C@@H](N)CCCCN	8.28
CNC(C(=O)N1CCCC1)[C@H](C)O (some centres not stated)	6.05
NCCC[C@H](NC(=O)OCc1ccccc1)C(=O)N1CCCC1	6.04
NCCCC[C@H](NC(=O)OCc1ccccc1)C(=O)N1CCCC1	6.28
C[C@H](N)C(=O)N1CCCC1	5.15
NC(C(=O)N1CCCC1)C1CCCC1 (configuration not stated)	6.68
CC(C)(C)[C@H](N)C(=O)N1CCCC1	6.06
N[C@H](C(=O)N1CCCC1)c1ccccc1	5.28
N[C@@H](CC(=O)O)C(=O)N1CCCC1	4.84
CCCC[C@H](N)C(=O)N1CCCC1	5.92
